According to PMC5259778, “Candidate pheromone receptors of codling moth Cydia pomonella respond to pheromones and kairomones” (Scientific Reports, 2017):

What was measured:
[1] = target: CpomOrco (Cydia pomonella, UniProt H9A5M2); test: Calcium imaging of HEK293T cells expressing homomeric CpomOrco; type: cell-based; settings: peak amplitudes normalized to response at 1000 μM agonist, read-out: [A]1/2 half-effective concentration of agonist, calcium response
Description: HEK293T cells were grown in HEK cell media [Dulbecco’s modified Eagle’s medium containing 10% fetal bovine serum (MP Biomedicals, Solon, OH, USA), 2.0 mM L-glutamine, and 100 μg/mL Penicillin/Streptomycin (Invitrogen)] at 37 °C and 5% CO2. To test transient expression of CpomORs for calcium imaging or patch-clamp recording experiments, 35-mm petri dishes containing semi-confluent HEK293T cells were transiently transfected. To transfect cells with CpomOrco, we used 1.0 μg of pcDNA5/TO/CpomOrco DNA. In order to promote expression of the OR[51], we used double aliquots for pcDNA5/TO/CpomOR DNAs (2.0 μg), combined with 1.0 μg of pcDNA5/TO/CpomOrco for co-transfections (CpomOrco + ORs). […]
(§1) Fluorescence imaging was performed using Imaging Workbench 6 software (INDEC BioSystems, Santa Clara, CA, USA). Each cell was assigned a region of interest (ROI) and changes in fluorescence intensity within each ROI were measured and expressed as the fractional change in fluorescence intensity (dF) or in some cases as dF/F0 where F0 is the basal fluorescence level before agonist application. […] Continuous traces of multiple responses were compensated for slow drift of the baseline fluorescence when necessary. […]

[2] = system: CpomOrco + OR complexes; test: Calcium imaging of HEK293T cells expressing heteromeric CpomOrco + OR complexes; type: cell-based, Cydia pomonella; settings: heteromeric complexes; peak amplitudes normalized to response at 1000 μM agonist; read-out: [A]1/2 half-effective concentration of agonist, calcium response
Description: HEK293T cells were grown in HEK cell media [Dulbecco’s modified Eagle’s medium containing 10% fetal bovine serum (MP Biomedicals, Solon, OH, USA), 2.0 mM L-glutamine, and 100 μg/mL Penicillin/Streptomycin (Invitrogen)] at 37 °C and 5% CO2. To test transient expression of CpomORs for calcium imaging or patch-clamp recording experiments, 35-mm petri dishes containing semi-confluent HEK293T cells were transiently transfected. To transfect cells with CpomOrco, we used 1.0 μg of pcDNA5/TO/CpomOrco DNA. In order to promote expression of the OR[51], we used double aliquots for pcDNA5/TO/CpomOR DNAs (2.0 μg), combined with 1.0 μg of pcDNA5/TO/CpomOrco for co-transfections (CpomOrco + ORs). To report expression for calcium imaging experiments, 1.0 μg of a separate plasmid DNA [pEBFP2-Nuc, a gift from Robert Campbell (Addgene plasmid # 14893[52])] carrying the coding sequence for a blue fluorescent protein (BFP) was used. In patch-clamp recordings, 1.0 μg of a separate plasmid DNA (pXOOM, Clontech) carrying the coding sequence for a green fluorescent protein (GFP) was used to report expression. In order to report candidate OR-expressing cells, expression of both fluorescent reporter genes was under the regulation of the same promoter for CpomOR genes (CMV). Transfection DNAs were dissolved in 100 μL sterile DMEM, mixed with 3.0 μL Calfectin (SignaGen, Rockville, MD, USA) following the recommended protocol. To estimate transfection efficiency, a parallel transfection was conducted using the positive control vector pcDNA5/TO/LACZ (Invitrogen) and staining with 0.1% XGal[53]. […]
as §1

Chain of CpomOrco (H9A5M2 entry or part of it): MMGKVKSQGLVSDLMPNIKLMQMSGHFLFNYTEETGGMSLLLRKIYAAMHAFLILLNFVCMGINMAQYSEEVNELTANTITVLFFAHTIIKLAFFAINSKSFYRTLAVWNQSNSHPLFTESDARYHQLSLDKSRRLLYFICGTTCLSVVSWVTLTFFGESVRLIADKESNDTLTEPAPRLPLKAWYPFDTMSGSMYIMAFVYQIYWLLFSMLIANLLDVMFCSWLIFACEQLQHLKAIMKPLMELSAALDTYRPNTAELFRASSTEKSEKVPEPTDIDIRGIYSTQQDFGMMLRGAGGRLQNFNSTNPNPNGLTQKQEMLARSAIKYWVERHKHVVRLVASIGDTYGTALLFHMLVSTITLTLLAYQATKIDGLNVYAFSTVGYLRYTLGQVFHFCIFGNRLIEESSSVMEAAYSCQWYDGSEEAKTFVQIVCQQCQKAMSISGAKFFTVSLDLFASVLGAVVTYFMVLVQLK

- EC50 [1]: ~362 µM
SMILES: CCn1c(SCC(=O)Nc2ccc(C(C)C)cc2)nnc1-c1ccncc1 [VUAA3, acetamide,2-[[4-ethyl-5-(4-pyridinyl)-4H-1,2,4-triazol-3-yl]thio]-N-[4-(1-methylethyl)phenyl]-]
- EC50 [2]: ~140 µM
